Publication PMC5645246 (Anesthesiology, 2017)
Several values for one entry are separate records, joined by “and”; a condition that tells them apart may be missing. Equal values may be shown once. Entries after “also recorded” stand apart in the source; their conditions may differ. Read-outs that look alike come from different tables or passages of the source.

Tests used:
[1] = system: GABAA receptor transmembrane anesthetic binding sites; conditions: photolabel protection studies; cited from earlier work
[2] = target: α1β3γ2L GABAA receptors (α+−β− and γ+−β− transmembrane anesthetic sites) (Homo sapiens, UniProt P14867+P18507+P28472); test: Inhibition of receptor photoaffinity labeling by R-[3H]mTFD-MPAB; conditions: for slope for inhibition of R-[3H]mTFD-MPAB photoincorporation: fit to equation 2
Sequence of α1β3γ2L GABAA receptors (α+−β− and γ+−β− transmembrane anesthetic sites) (P14867 28-456): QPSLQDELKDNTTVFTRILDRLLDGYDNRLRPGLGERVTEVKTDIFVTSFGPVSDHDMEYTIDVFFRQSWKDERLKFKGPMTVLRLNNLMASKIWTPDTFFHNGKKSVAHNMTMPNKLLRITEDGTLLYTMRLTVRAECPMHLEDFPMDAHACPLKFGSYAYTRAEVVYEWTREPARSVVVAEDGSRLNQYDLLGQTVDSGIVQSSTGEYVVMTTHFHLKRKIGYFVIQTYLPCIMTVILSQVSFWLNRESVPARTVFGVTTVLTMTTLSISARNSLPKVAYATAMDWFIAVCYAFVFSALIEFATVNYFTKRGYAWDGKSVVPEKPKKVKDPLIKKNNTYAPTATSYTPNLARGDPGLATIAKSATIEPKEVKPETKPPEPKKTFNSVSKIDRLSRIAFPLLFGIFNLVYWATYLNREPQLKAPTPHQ
Sequence of α1β3γ2L GABAA receptors (α+−β− and γ+−β− transmembrane anesthetic sites) (P28472 26-473): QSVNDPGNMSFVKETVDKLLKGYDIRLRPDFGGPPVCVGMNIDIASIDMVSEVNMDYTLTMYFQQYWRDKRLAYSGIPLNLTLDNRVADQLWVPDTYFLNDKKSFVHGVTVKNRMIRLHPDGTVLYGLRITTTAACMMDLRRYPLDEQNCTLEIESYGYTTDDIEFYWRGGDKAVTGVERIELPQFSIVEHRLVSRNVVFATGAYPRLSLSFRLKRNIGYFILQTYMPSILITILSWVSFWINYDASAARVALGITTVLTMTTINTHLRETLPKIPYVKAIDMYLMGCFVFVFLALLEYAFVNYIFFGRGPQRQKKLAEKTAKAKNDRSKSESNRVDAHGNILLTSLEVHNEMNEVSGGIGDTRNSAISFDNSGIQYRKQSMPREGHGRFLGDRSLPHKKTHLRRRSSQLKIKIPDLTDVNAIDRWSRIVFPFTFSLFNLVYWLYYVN
Sequence of α1β3γ2L GABAA receptors (α+−β− and γ+−β− transmembrane anesthetic sites) (P18507 40-475): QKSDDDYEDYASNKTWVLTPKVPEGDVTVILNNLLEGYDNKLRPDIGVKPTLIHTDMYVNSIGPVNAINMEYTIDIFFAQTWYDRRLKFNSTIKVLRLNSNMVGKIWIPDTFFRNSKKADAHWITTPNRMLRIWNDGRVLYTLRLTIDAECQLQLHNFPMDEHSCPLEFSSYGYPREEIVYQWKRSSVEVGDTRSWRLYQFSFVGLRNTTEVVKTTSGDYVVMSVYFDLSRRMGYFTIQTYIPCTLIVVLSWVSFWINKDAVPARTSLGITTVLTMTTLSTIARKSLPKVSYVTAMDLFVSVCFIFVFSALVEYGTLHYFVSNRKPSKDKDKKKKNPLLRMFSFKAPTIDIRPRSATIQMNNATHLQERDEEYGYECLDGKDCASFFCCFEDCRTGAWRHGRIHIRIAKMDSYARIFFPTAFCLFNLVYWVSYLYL

[3] = target: T1, α1β3γ2L GABAA receptors (Homo sapiens, UniProt P14867+P18507+P28472); conditions: 300 μM naphthalene-etomidate; for Percent change in peak current amplitude, GABA EC5 + Etomidate: etomidate 3 μM; for Percent change in peak current amplitude, GABA EC5 + Pentobarbital: pentobarbital 120 μM; for Percent change in peak current amplitude, GABA EC5 + Propofol: propofol 10 μM
T1 sequence (P14867 28-456): as the sequence (P14867 28-456) above
T1 sequence (P28472 26-473): as the sequence (P28472 26-473) above
T1 sequence (P18507 40-475): as the sequence (P18507 40-475) above

[4] = target: α1β3γ2L GABAA receptor open and closed states (Homo sapiens, UniProt P14867+P18507+P28472); test: Allosteric modeling of direct activation data; type: cell-based
Sequence of α1β3γ2L GABAA receptor open and closed states (P14867 28-456): as the sequence (P14867 28-456) above
Sequence of α1β3γ2L GABAA receptor open and closed states (P28472 26-473): as the sequence (P28472 26-473) above
Sequence of α1β3γ2L GABAA receptor open and closed states (P18507 40-475): as the sequence (P18507 40-475) above

[5] = target: T1, α1β3γ2L GABAA receptors; type: cell-based; conditions: for EC5 GABA-evoked currents in the presence of drug, as % of those evoked by 1 mM GABA: 300 μM drug, mean ± SD; for maximum peak current amplitude at high drug concentrations, relative to that produced by 1 mM GABA: EC5 GABA; for maximum peak current amplitude at high drug concentrations, relative to that produced by 1 mM GABA / slope of potentiation concentration-response curve: fit to equation 1
[6] = target: T1, α1β3γ2L GABAA receptors; type: cell-based
[7] = Aqueous saturation; type: physicochemical; conditions: aqueous buffer
[8] = target: α1β3γ2L GABAA receptors (β+−α− transmembrane anesthetic sites) (Homo sapiens, UniProt P14867+P18507+P28472); test: Inhibition of receptor photoaffinity labeling by [3H]azi-etomidate; conditions: for slope for inhibition of [3H]azi-etomidate photoincorporation: fit to equation 2
Sequence of α1β3γ2L GABAA receptors (β+−α− transmembrane anesthetic sites) (P14867 28-456): as the sequence (P14867 28-456) above
Sequence of α1β3γ2L GABAA receptors (β+−α− transmembrane anesthetic sites) (P28472 26-473): as the sequence (P28472 26-473) above
Sequence of α1β3γ2L GABAA receptors (β+−α− transmembrane anesthetic sites) (P18507 40-475): as the sequence (P18507 40-475) above

[9] = target: T1, α1β3γ2L GABAA receptors; type: cell-based; remark: listed apart in the source
[10] = listed as Naphthalene-etomidate
[11] = GABA Pre-exposure, mean ± SD, n = 6
[12] = Naphthalene-etomidate Pre-exposure (10 s), mean ± SD, n = 6
[13] = Simultaneous Addition, mean ± SD, n = 6
[14] = EC5 GABA + 10 μM propofol, fit to equation 2
[15] = absence of naphthalene-etomidate
[16] = presence of 300 μM naphthalene-etomidate

CCCC(C)C1(CC)C(=O)NC(=O)NC1=O (stereo not shown) [pentobarbital]
binding selectivity for β+–α− sites as compared to α+–β−/γ+–β− sites [1]: reverse selectivity

CCOC(=O)c1cncn1C(C)c1cccc2ccccc12 (stereo not shown) [naphthalene-etomidate]
slope for inhibition of R-[3H]mTFD-MPAB photoincorporation [2]: −1.3 | slope for inhibition of R-[3H]mTFD-MPAB photoincorporation [2, 10]: −2.0 | inhibition of specific R-[3H]mTFD-MPAB photoincorporation ([2]; highest concentrations studied): ≥ 90% | fold greater reduction in currents potentiated by propofol compared to currents potentiated by etomidate or pentobarbital [3]: approximately 2 fold | Percent change in peak current amplitude, GABA EC5 + Diazepam ([3]; GABA Pre-exposure, diazepam 1 μM, mean ± SD, n = 6): 33 ± 6.9% | Percent change in peak current amplitude, GABA EC5 + Etomidate [3, 11]: −24 ± 1.8% | Percent change in peak current amplitude, GABA EC50 [3, 11]: 21 ± 9% | Percent change in peak current amplitude, GABA EC5 + Pentobarbital [3, 11]: −21 ± 5.4% | Percent change in peak current amplitude, GABA EC5 + Propofol [3, 11]: −49 ± 4.69% | Percent change in peak current amplitude, GABA EC5 + Etomidate [3, 12]: −47 ± 4.1% | Percent change in peak current amplitude, GABA EC50 [3, 12]: −8.8 ± 8.6% | Percent change in peak current amplitude, GABA EC5 + Pentobarbital [3, 12]: −45 ± 7.9% | Percent change in peak current amplitude, GABA EC5 + Propofol [3, 12]: −68 ±6.0% | Percent change in peak current amplitude, GABA EC5 + Etomidate [3, 13]: −33 ± 7.8% | Percent change in peak current amplitude, GABA EC50 ([3]; Simultaneous Addition, mean ± SD, n = 6 oocytes): 7.3 ± 8.8% | Percent change in peak current amplitude, GABA EC5 + Pentobarbital [3, 13]: −33 ± 7.1% | Percent change in peak current amplitude, GABA EC5 + Propofol [3, 13]: −63 ± 7.3% | fold lower affinity for the open state of the receptor versus etomidate ([4]; comparison of dissociation constants): 27 fold | fold higher affinity for the open state than the closed state ([4]; from Kdopen and Kdclosed): 4.4 fold | EC5 GABA-evoked currents in the presence of drug, as % of those evoked by 1 mM GABA [5]: 11 ± 2.7% and 11% | maximum peak current amplitude at high drug concentrations, relative to that produced by 1 mM GABA [5]: 11% | slope of potentiation concentration-response curve [5]: 3 | directly activated currents compared with those activated by etomidate ([6]; same oocyte, no GABA): orders of magnitude smaller | near aqueous-saturating concentration [7]: ~300 µM | slope for inhibition of [3H]azi-etomidate photoincorporation [8]: −2.0 | slope for inhibition of [3H]azi-etomidate photoincorporation [8, 10]: −1.2 | inhibition of specific [3H]azi-etomidate photoincorporation ([8]; highest concentrations studied): ≥ 90% | fold increase in EC50 for propofol potentiation of EC5 GABA-evoked currents ([9]; 300 μM naphthalene-etomidate): 6 fold | minimum normalized peak current at high naphthalene-etomidate concentrations [9, 14]: 24% | slope for inhibition of propofol-potentiated currents [9, 14]: −3.9

CCOC(=O)c1cncn1[C@H](C)c1ccccc1 [etomidate, reference compound]
fold potentiation of EC5 GABA-evoked current ([5]; 100 μM drug, representative traces, single oocyte): 14 fold | EC5 GABA-evoked currents in the presence of drug, as % of those evoked by 1 mM GABA [5]: 90 ± 7% | maximum peak current amplitude at high drug concentrations, relative to that produced by 1 mM GABA [5]: 95% | slope of potentiation concentration-response curve [5]: 1.2 | slope of direct activation concentration-response curve ([6]; fit to equation 1): 1.2

CC(C)c1cccc(C(C)C)c1O [propofol]
binding selectivity for β+–α− sites as compared to α+–β−/γ+–β− sites [1]: essentially no selectivity at all; also recorded: virtually no binding site selectivity | peak current amplitude (normalized to 1 mM GABA) produced with EC5 GABA ([9]; 10 μM propofol, absence of naphthalene-etomidate): 61% | EC50 ([9]; EC50 for propofol potentiation of EC5 GABA-evoked currents, absence of naphthalene-etomidate, minimum constrained to 5%): 6 µM | maximal peak current response at high propofol concentrations [9, 15]: 88% | slope of propofol potentiation curve [9, 15]: 1.5 | maximal peak current response at high propofol concentrations [9, 16]: 87% | slope of propofol potentiation curve [9, 16]: 1.0
